The values below come from PubChem BioAssay AID284 (DTP/NCI, 2004).

“And” between values parts separate entries of the source, which are not always exact repeats. Equal values may be shown once. Toxic doses and inconclusive results are not listed.

The subject of this experiment is BDF1 mice, L1210/MTX-resistant leukemia ip, survival T/C. Kind of experiment: NCI In Vivo Anticancer Drug Screen. Data for tumor model L1210 Leukemia resistant to Methotrexate; NSC 740 (intraperitoneal) in B6D2F1 (BDF1) mice. The settings on record: endpoint: mean survival time, higher = longer survival. On the procedure:
The antitumor activity of compounds was measured in mice bearing transplantable tumors. Survival or tumor size were measured and the results are expressed as the measurement made in the treated group (T) divided by the measurement made in the vehicle treated control group (C). The tumor model used in this assay is L1210 Leukemia resistant to Methotrexate; NSC 740 (intraperitoneal) in B6D2F1 (BDF1) mice

[1] abbreviates: dose: 62.5 mg/kg/injection, schedule: Q01DX010 (ip), vehicle: saline.
Setting [2] is: dose: 125.0 mg/kg/injection, schedule: Q01DX010 (ip), vehicle: saline.
[3] abbreviates: dose: 250.0 mg/kg/injection, schedule: Q01DX010 (ip), vehicle: saline.
Where [4] appears, read: dose: 500.0 mg/kg/injection, schedule: Q01DX010 (ip), vehicle: saline.

Take `NC(Cc1ccc(N(CCCl)CCCl)cc1)C(=O)O` (stereo unspecified): the T/C by setting is: (dose: 0.5 mg/kg/injection, schedule: Q01DX Z (ip), vehicle: carboxymethylcellulose (CMC)) 112 % of control; (dose: 1.0 mg/kg/injection, schedule: Q01DX Z (ip), vehicle: carboxymethylcellulose (CMC)) 123 % of control; (dose: 2.0 mg/kg/injection, schedule: Q01DX010 (ip), vehicle: other) 156 % of control; (dose: 2.0 mg/kg/injection, schedule: Q01DX Z (ip), vehicle: carboxymethylcellulose (CMC)) 102 % of control; (dose: 4.0 mg/kg/injection, schedule: Q01DX010 (ip), vehicle: other) 98 % of control; (dose: 4.0 mg/kg/injection, schedule: Q01DX Z (ip), vehicle: carboxymethylcellulose (CMC)) 90 % of control. In addition, the T/C (dose: 5.0 mg/kg/injection, schedule: Q01DX Z (ip), vehicle: carboxymethylcellulose (CMC)) was 107 % of control; the T/C (dose: 7.5 mg/kg/injection, schedule: Q01DX Z (ip), vehicle: carboxymethylcellulose (CMC)) was 86 % of control; the T/C (dose: 8.0 mg/kg/injection, schedule: Q01DX010 (ip), vehicle: other) was 91 % of control; the T/C (dose: 10.0 mg/kg/injection, schedule: Q01DX Z (ip), vehicle: carboxymethylcellulose (CMC)) was 93 % of control.
Consider `N=[N+]=CC(=O)OCC(N)C(=O)O` (stereo unspecified), for which the T/C (dose: 1.25 mg/kg/injection, schedule: Q01DX Z (ip), vehicle: saline) is 116 % of control and 121 % of control; the T/C (dose: 2.5 mg/kg/injection, schedule: Q01DX Z (ip), vehicle: saline) is 112 % of control; the T/C (dose: 10.0 mg/kg/injection, schedule: Q01DX Z (ip), vehicle: saline) is 117 % of control and 104 % of control; the T/C (dose: 40.0 mg/kg/injection, schedule: Q01DX Z (ip), vehicle: saline) was 101 % of control; the T/C (dose: 80.0 mg/kg/injection, schedule: Q01DX Z (ip), vehicle: saline) was 93 % of control.
Regarding `c1ccc(CCSc2ncnc3nc[nH]c23)cc1`, the T/C reads like this: under setting [1], 93 % of control; under setting [2], 91 % of control; under setting [3], 100 % of control; under setting [4], 100 % of control.
Turning to `CC(=O)N(C)C`, the T/C is, setting by setting: under setting [1], 90 % of control and 98 % of control; (dose: 62.5 mg/kg/injection, schedule: Q01DX Z (ip), vehicle: saline) 106 % of control; under setting [2], 102 % of control; (dose: 125.0 mg/kg/injection, schedule: Q01DX Z (ip), vehicle: saline) 122 % of control; under setting [3], 93 % of control and 100 % of control; under setting [4], 93 % of control. Further, the T/C reads like this: (dose: 500.0 mg/kg/injection, schedule: Q01DX Z (ip), vehicle: saline) 114 % of control and 88 % of control; (dose: 750.0 mg/kg/injection, schedule: Q01DX Z (ip), vehicle: saline) 88 % of control; (dose: 1000.0 mg/kg/injection, schedule: Q01DX Z (ip), vehicle: methylcellulose (MC)) 87 % of control.
Consider `S=c1nc[nH]c2nc[nH]c12`, for which the T/C was 118 % of control (dose: 1.2 mg/kg/injection, schedule: Q01DX Z (ip), vehicle: carboxymethylcellulose (CMC)); 91 % of control (dose: 2.4 mg/kg/injection, schedule: Q01DX Z (ip), vehicle: carboxymethylcellulose (CMC)); 95 % of control (dose: 3.0 mg/kg/injection, schedule: Q01DX Z (ip), vehicle: carboxymethylcellulose (CMC)); 100 % of control (dose: 5.0 mg/kg/injection, schedule: Q01DX010 (ip), vehicle: alkali diluted with saline); 120 % of control and 91 % of control and 102 % of control (dose: 5.0 mg/kg/injection, schedule: Q01DX Z (ip), vehicle: alkali diluted with saline); 111 % of control (dose: 6.0 mg/kg/injection, schedule: Q01DX Z (ip), vehicle: carboxymethylcellulose (CMC)). The T/C runs as follows: (dose: 9.0 mg/kg/injection, schedule: Q01DX Z (ip), vehicle: carboxymethylcellulose (CMC)) 95 % of control; (dose: 10.0 mg/kg/injection, schedule: Q01DX010 (ip), vehicle: alkali diluted with saline) 99 % of control; (dose: 10.0 mg/kg/injection, schedule: Q01DX Z (ip), vehicle: alkali diluted with saline) 94 % of control and 110 % of control; (dose: 12.0 mg/kg/injection, schedule: Q01DX Z (ip), vehicle: carboxymethylcellulose (CMC)) 98 % of control; (dose: 20.0 mg/kg/injection, schedule: Q01DX010 (ip), vehicle: alkali diluted with saline) 101 % of control; (dose: 20.0 mg/kg/injection, schedule: Q01DX Z (ip), vehicle: alkali diluted with saline) 117 % of control and 91 % of control and 102 % of control. In addition, the T/C reads like this: (dose: 25.0 mg/kg/injection, schedule: Q01DX Z (ip), vehicle: other) 93 % of control and 103 % of control; (dose: 36.0 mg/kg/injection, schedule: Q01DX Z (ip), vehicle: carboxymethylcellulose (CMC)) 102 % of control; (dose: 40.0 mg/kg/injection, schedule: Q01DX010 (ip), vehicle: alkali diluted with saline) 104 % of control; (dose: 80.0 mg/kg/injection, schedule: Q01DX010 (ip), vehicle: alkali diluted with saline) 95 % of control; (dose: 100.0 mg/kg/injection, schedule: Q01DX Z (ip), vehicle: other) 123 % of control and 98 % of control.
Turning to `Nc1ccc(C(=O)NO)cc1`, the T/C is 109 % of control (dose: 112.0 mg/kg/injection, schedule: Q01DX015 (ip), vehicle: carboxymethylcellulose (CMC)); 117 % of control (dose: 225.0 mg/kg/injection, schedule: Q01DX015 (ip), vehicle: carboxymethylcellulose (CMC)); 100 % of control (dose: 450.0 mg/kg/injection, schedule: Q01DX015 (ip), vehicle: carboxymethylcellulose (CMC)).
Regarding `CS(=O)(=O)OCC(O)C(O)COS(C)(=O)=O` (stereo unspecified), the T/C is 88 % of control (dose: 18.8 mg/kg/injection, schedule: Q01DX Z (ip), vehicle: saline); 90 % of control (dose: 37.5 mg/kg/injection, schedule: Q01DX Z (ip), vehicle: saline); 101 % of control (dose: 75.0 mg/kg/injection, schedule: Q01DX Z (ip), vehicle: saline).
`Cn1c(O)c(N=NC(N)=S)c2ccccc21`: the T/C reads like this: (dose: 50.0 mg/kg/injection, schedule: Q01DX Z (ip), vehicle: carboxymethylcellulose (CMC)) 96 % of control; (dose: 100.0 mg/kg/injection, schedule: Q01DX Z (ip), vehicle: carboxymethylcellulose (CMC)) 86 % of control.
As to `O=C(Nc1ccc(C2=NCCN2)cc1)c1cccc(C(=O)Nc2ccc(C3=NCCN3)cc2)c1`, the T/C is, setting by setting: (dose: 8.0 mg/kg/injection, schedule: Q01DX010 (ip), vehicle: saline) 177 % of control and 209 % of control; (dose: 12.5 mg/kg/injection, schedule: Q01DX Z (ip), vehicle: methylcellulose (MC)) 122 % of control; (dose: 16.0 mg/kg/injection, schedule: Q01DX010 (ip), vehicle: saline) 211 % of control and 247 % of control; (dose: 32.0 mg/kg/injection, schedule: Q01DX010 (ip), vehicle: saline) 225 % of control and 256 % of control; (dose: 50.0 mg/kg/injection, schedule: Q01DX Z (ip), vehicle: methylcellulose (MC)) 95 % of control; (dose: 64.0 mg/kg/injection, schedule: Q01DX010 (ip), vehicle: saline) 235 % of control and 250 % of control.
Take `Nc1ncnc2[nH]ncc12`: the T/C (dose: 1.5 mg/kg/injection, schedule: Q01DX010 (ip), vehicle: saline) is 91 % of control and 107 % of control; the T/C (dose: 3.0 mg/kg/injection, schedule: Q01DX010 (ip), vehicle: saline) was 96 % of control and 102 % of control; the T/C (dose: 6.0 mg/kg/injection, schedule: Q01DX010 (ip), vehicle: saline) is 99 % of control and 103 % of control; the T/C (dose: 12.0 mg/kg/injection, schedule: Q01DX010 (ip), vehicle: saline) is 89 % of control.
Take `[I][Hg][CH2]C1COC([CH2][Hg][I])CO1` (stereo unspecified): the T/C is, setting by setting: (dose: 0.8 mg/kg/injection, schedule: Q01DX Z (ip), vehicle: methylcellulose (MC)) 94 % of control; (dose: 1.6 mg/kg/injection, schedule: Q01DX Z (ip), vehicle: methylcellulose (MC)) 94 % of control; (dose: 6.25 mg/kg/injection, schedule: Q01DX010 (ip), vehicle: saline) 101 % of control; (dose: 12.5 mg/kg/injection, schedule: Q01DX010 (ip), vehicle: saline) 103 % of control.
Turning to `Nc1nc(N)c2nc(CNc3ccc(C(=O)NC(CCC(=O)O)C(=O)O)cc3)cnc2n1` (stereo unspecified), the T/C was 90 % of control (dose: 0.05 mg/kg/injection, schedule: Q01DX010 (ip), vehicle: other); 102 % of control and 103 % of control (dose: 0.1 mg/kg/injection, schedule: Q01DX010 (ip), vehicle: other); 92 % of control and 104 % of control (dose: 0.2 mg/kg/injection, schedule: Q01DX010 (ip), vehicle: other); 89 % of control (dose: 0.4 mg/kg/injection, schedule: Q01DX010 (ip), vehicle: other).
